Laboratory results: PMC7366380, “Discovery of a Potent and Selective Covalent Inhibitor and Activity-Based Probe for the Deubiquitylating Enzyme UCHL1, with Antifibrotic Activity” (Journal of the American Chemical Society, 2020)
Values joined by “and” are separate entries in the source; they are usually repeats but may differ in a detail not shown here. Equal values may be shown once.

Columns and labels:
Experiment in all cases: In-cell proteome-wide competitive ABPP, HEK293: other DUBs and proteins
[1] = target: DUBs and other proteins in HEK293 cells (Homo sapiens, UniProt O15372); details: for Log2 reporter intensity values, EIF3H: TMT replicates; for Log2 reporter intensity values: EIF3H: competition with ABP 2, DMSO substract (FC); for Log2 reporter intensity values: EIF3H / Log2 reporter intensity values: replicates A-C; for Log2 t-test Difference / Log2 reporter intensity values: EIF3H
[2] = target: T1, DUBs and other proteins in HEK293 cells (Homo sapiens, UniProt P45974); details: replicates A-C; for Log2 reporter intensity values: USP5: competition with ABP 2, DMSO substract (FC); for Log2 reporter intensity values: USP5, DMSO subtracted
T1 sequence (P45974 1-858): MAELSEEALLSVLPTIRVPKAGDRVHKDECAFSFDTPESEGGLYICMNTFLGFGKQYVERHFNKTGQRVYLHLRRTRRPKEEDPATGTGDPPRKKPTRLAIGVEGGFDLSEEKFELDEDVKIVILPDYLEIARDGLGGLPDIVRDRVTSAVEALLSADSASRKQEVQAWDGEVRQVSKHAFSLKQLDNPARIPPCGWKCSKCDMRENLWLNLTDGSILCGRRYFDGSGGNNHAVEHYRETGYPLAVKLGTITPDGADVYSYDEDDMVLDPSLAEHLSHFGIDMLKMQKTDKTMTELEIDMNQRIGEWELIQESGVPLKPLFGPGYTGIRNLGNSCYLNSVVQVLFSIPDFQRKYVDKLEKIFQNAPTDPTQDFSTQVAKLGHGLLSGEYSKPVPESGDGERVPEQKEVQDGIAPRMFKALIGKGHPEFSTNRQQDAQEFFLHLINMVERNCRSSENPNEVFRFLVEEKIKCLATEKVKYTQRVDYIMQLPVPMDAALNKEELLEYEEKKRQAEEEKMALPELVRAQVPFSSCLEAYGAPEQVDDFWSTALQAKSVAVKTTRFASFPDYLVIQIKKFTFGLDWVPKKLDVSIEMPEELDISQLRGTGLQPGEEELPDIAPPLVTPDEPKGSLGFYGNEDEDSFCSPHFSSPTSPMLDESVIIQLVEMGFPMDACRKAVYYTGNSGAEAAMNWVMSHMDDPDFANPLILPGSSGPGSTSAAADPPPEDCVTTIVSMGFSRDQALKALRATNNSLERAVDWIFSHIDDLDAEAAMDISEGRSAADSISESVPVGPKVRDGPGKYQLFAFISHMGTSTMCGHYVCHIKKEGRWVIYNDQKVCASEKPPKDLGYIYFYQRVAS

[3] = target: T2, DUBs and other proteins in HEK293 cells (Homo sapiens, UniProt Q86UV5); details: for Log2 reporter intensity values: USP48: competition with ABP 2, DMSO substract (FC), replicates A-B; for Log2 reporter intensity values: USP48, DMSO subtracted
T2 sequence (Q86UV5 1-1035): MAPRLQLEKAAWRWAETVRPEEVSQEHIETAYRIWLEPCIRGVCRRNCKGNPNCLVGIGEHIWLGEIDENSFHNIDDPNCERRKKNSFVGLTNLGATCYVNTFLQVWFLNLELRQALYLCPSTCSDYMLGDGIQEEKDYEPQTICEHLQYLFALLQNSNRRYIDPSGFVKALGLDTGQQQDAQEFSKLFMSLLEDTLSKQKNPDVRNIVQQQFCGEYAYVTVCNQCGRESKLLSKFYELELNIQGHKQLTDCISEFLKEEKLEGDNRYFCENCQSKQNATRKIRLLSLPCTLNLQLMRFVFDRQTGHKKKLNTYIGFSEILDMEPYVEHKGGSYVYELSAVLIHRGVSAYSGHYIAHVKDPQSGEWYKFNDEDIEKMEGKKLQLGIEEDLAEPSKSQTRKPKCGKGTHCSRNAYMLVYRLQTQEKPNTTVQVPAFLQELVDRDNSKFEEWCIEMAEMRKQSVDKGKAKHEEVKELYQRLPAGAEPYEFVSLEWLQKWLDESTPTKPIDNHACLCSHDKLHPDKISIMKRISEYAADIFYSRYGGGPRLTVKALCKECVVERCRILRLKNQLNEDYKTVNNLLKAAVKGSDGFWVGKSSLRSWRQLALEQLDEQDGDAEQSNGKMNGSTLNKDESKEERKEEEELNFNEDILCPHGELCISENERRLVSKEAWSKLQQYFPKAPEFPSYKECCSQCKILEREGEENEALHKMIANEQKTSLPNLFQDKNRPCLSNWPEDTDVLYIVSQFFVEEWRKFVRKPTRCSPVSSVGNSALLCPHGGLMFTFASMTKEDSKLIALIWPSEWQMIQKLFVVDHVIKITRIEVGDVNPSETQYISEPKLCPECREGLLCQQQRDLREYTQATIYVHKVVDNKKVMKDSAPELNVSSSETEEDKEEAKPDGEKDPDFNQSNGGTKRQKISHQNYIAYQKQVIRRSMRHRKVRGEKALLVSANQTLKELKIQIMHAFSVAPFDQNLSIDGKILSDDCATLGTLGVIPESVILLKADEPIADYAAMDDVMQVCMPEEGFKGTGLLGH

[4] = target: DUBs and other proteins in HEK293 cells (Homo sapiens, UniProt Q92905); details: for Log2 reporter intensity values, COPS5: TMT replicates; for Log2 reporter intensity values: COPS5: competition with ABP 2, DMSO substract (FC); for Log2 reporter intensity values: COPS5 / Log2 reporter intensity values: replicates A-C; for Log2 t-test Difference / Log2 reporter intensity values: COPS5
[5] = target: DUBs and other proteins in HEK293 cells (Homo sapiens, UniProt Q93008); details: replicates A-C; for Log2 reporter intensity values: USP9X;USP9Y: competition with ABP 2, DMSO substract (FC); for Log2 reporter intensity values: USP9X;USP9Y, DMSO subtracted
[6] = 1 μM 3 (60 min) + 20 nM ABP 2 (10 min), All values
[7] = 1 μM 3 (60 min) + 20 nM ABP 2 (10 min), DMSO subtracted
[8] = 4 μM 3 (60 min) + 20 nM ABP 2 (10 min), All values
[9] = 4 μM 3 (60 min) + 20 nM ABP 2 (10 min), DMSO subtracted

Chain of DUBs and other proteins in HEK293 cells (Homo sapiens, UniProt Q92905) (Q92905 whole entry): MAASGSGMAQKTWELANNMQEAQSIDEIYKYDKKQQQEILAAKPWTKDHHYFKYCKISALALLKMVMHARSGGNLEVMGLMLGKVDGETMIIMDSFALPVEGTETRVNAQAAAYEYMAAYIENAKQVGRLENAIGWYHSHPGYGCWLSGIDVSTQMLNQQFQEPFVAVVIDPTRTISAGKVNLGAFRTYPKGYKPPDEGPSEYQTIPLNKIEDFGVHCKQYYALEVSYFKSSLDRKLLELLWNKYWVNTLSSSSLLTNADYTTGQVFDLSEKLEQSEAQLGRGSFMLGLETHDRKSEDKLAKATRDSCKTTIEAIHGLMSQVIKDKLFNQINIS
Chain of DUBs and other proteins in HEK293 cells (Homo sapiens, UniProt Q93008) (Q93008 whole entry): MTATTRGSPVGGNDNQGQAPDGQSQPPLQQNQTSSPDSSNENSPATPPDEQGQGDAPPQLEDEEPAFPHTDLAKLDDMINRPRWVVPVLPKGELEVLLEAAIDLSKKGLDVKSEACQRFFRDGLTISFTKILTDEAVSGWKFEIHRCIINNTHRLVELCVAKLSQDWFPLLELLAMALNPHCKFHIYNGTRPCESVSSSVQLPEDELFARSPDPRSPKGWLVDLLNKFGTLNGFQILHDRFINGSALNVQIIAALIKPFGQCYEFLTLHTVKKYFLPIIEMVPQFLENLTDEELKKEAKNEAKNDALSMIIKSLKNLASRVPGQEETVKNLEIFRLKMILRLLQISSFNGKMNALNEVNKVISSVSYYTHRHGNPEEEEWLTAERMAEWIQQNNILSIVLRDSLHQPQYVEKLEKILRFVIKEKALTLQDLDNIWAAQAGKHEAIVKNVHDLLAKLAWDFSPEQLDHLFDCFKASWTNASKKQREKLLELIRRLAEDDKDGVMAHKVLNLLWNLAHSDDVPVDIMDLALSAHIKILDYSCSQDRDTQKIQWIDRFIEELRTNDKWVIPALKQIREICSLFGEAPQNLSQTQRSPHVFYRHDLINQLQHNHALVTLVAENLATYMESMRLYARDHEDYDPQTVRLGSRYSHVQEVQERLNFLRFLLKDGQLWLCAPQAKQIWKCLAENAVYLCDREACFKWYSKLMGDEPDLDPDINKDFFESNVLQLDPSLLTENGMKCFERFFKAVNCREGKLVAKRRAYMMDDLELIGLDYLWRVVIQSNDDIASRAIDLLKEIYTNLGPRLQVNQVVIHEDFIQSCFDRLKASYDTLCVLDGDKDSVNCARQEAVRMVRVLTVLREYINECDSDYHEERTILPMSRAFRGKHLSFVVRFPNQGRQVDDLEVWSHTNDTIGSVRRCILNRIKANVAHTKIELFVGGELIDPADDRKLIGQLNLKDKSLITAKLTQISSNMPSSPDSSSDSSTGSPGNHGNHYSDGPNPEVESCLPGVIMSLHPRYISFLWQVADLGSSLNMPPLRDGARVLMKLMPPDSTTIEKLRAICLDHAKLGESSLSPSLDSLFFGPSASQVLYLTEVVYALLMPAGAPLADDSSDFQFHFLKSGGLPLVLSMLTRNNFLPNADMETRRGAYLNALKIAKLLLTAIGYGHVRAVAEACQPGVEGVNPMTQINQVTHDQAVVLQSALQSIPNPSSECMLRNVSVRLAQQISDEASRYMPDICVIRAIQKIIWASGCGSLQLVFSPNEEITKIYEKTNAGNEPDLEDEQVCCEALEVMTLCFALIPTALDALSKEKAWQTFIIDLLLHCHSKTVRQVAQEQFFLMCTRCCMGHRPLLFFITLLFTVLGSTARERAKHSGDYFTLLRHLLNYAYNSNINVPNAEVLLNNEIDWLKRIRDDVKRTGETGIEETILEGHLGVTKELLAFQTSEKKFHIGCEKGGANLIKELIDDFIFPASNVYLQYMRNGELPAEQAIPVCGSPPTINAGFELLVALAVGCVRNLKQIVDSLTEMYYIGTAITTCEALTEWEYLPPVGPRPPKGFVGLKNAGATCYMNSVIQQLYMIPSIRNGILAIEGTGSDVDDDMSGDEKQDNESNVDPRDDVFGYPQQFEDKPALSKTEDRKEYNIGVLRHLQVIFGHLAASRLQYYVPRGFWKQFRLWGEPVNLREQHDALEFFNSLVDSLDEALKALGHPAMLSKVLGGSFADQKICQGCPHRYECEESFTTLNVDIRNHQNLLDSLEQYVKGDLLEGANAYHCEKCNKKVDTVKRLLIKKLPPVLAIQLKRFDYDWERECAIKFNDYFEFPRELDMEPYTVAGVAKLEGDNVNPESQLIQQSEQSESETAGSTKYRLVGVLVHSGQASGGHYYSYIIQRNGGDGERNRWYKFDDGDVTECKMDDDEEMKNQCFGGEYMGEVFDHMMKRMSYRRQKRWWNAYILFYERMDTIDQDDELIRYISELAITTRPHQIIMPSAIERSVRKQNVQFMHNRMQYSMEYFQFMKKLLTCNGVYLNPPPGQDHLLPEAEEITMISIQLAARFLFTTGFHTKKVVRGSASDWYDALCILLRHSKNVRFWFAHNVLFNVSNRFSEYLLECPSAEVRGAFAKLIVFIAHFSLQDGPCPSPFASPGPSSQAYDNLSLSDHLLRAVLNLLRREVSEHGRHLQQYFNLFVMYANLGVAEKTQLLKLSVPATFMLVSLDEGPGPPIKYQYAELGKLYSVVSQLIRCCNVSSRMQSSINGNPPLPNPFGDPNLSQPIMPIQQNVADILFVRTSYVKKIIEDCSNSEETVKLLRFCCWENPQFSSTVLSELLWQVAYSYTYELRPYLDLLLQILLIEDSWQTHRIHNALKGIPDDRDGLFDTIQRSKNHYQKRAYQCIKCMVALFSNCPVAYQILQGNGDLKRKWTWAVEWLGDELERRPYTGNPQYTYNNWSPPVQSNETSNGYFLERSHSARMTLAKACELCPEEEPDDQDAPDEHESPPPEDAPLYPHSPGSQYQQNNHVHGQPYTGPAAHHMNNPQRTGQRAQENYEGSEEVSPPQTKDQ
Chain of DUBs and other proteins in HEK293 cells (Homo sapiens, UniProt O15372) (O15372 whole entry): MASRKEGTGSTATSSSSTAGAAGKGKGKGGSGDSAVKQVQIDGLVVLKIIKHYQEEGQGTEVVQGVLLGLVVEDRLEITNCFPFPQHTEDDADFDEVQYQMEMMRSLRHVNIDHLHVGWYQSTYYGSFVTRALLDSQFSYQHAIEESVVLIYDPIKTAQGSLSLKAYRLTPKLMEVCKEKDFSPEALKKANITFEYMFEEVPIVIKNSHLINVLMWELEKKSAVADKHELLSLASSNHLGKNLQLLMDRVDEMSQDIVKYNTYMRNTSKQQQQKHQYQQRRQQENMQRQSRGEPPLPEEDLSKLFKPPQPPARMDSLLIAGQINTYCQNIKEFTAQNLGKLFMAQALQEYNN

For `N#CN1CCC[C@@H]1C(=O)N1CCc2c(-c3c[nH]c4ncccc34)cccc21` [Compound 3], the “Log2 reporter intensity values, EIF3H” value [1, 6] was -0.08032 and 0.01397 and -0.006379, the “Log2 reporter intensity values, EIF3H” value [1, 7] was -0.1099 and -0.01562 and -0.03597 and the “Log2 reporter intensity values, EIF3H” value [1, 8] was 0.0444 and 0.04115 and 0.06318. The “Log2 reporter intensity values, EIF3H” value [1, 9] was 0.01481 and 0.01156 and 0.03359, the “Log2 reporter intensity values: EIF3H” value ([1]; 3 at 1 μM) was 0.9266 and 0.9892 and 0.9754 and the “Log2 reporter intensity values: EIF3H” value ([1]; 3 at 4 μM) was 1.01 and 1.008 and 1.024. The “Log2 t-test Difference” value ([1]; 3 - 1 μM) was -0.05018, the “Log2 t-test Difference” value ([1]; 3 - 4 μM) was 0.02364 and the “Log2 reporter intensity values” ([1]; 3_1 μM, DMSO subtracted) was -0.0735 and -0.01091 and -0.02477. For the same compound, the “Log2 reporter intensity values” ([1]; 3_4 μM, DMSO subtracted) was 0.01017 and 0.007903 and 0.02341, the “Log2 reporter intensity values” ([1]; 3 at 1 μM, DMSO subtracted) was -0.1099 and -0.01562 and -0.03597 and the “Log2 reporter intensity values” ([1]; 3 at 4 μM, DMSO subtracted) was 0.01481 and 0.01156 and 0.03359. For the same compound, the “Log2 reporter intensity values: USP5” value ([2]; 3 at 1 μM) was 0.9394 and 0.9901 and 0.9848, the “Log2 reporter intensity values: USP5” value ([2]; 3 at 4 μM) was 1.005 and 1.031 and 1.063 and the “Log2 reporter intensity values” ([2]; 3_1 μM) was -0.06093 and -0.01022 and -0.01553. The “Log2 reporter intensity values” ([2]; 3_4 μM) was 0.004396 and 0.03114 and 0.06231, the “Log2 reporter intensity values” ([2]; 3 at 1 μM) was -0.0902 and -0.01435 and -0.02211 and the “Log2 reporter intensity values” ([2]; 3 at 4 μM) was 0.006795 and 0.04469 and 0.08765. For the same compound, the “Log2 reporter intensity values: USP48” value ([3]; 3 at 1 μM) was 1.063 and 0.8844, the “Log2 reporter intensity values: USP48” value ([3]; 3 at 4 μM) was 0.8635 and 1.157 and the “Log2 reporter intensity values” ([3]; 3_1 μM, replicates A-B (C NaN)) was 0.06169 and -0.1169. For the same compound, the “Log2 reporter intensity values” ([3]; 3_4 μM, replicates A-B (C NaN)) was -0.1378 and 0.156, the “Log2 reporter intensity values” ([3]; 3 at 1 μM, replicates A-C) was 0.08809 and -0.1773 and the “Log2 reporter intensity values” ([3]; 3 at 4 μM, replicates A-C) was -0.2118 and 0.2108. For the same compound, the “Log2 reporter intensity values, COPS5” value [4, 6] was 0.001825 and 0.1477 and 0.03353, the “Log2 reporter intensity values, COPS5” value [4, 7] was 0.05994 and 0.2058 and 0.09165 and the “Log2 reporter intensity values, COPS5” value [4, 8] was -0.03978 and -0.2063 and -0.1486. The “Log2 reporter intensity values, COPS5” value [4, 9] was 0.01834 and -0.1481 and -0.09052, the “Log2 reporter intensity values: COPS5” value ([4]; 3 at 1 μM) was 1.042 and 1.153 and 1.066 and the “Log2 reporter intensity values: COPS5” value ([4]; 3 at 4 μM) was 1.013 and 0.9024 and 0.9392. For the same compound, the “Log2 t-test Difference” value ([4]; 3 - 1 μM) was -0.04319, the “Log2 t-test Difference” value ([4]; 3 - 4 μM) was -0.2358 and the “Log2 reporter intensity values” ([4]; 3_1 μM, DMSO subtracted) was 0.04234 and 0.1532 and 0.0655. For the same compound, the “Log2 reporter intensity values” ([4]; 3_4 μM, DMSO subtracted) was 0.01271 and -0.09767 and -0.0609, the “Log2 reporter intensity values” ([4]; 3 at 1 μM, DMSO subtracted) was 0.05994 and 0.2058 and 0.09165 and the “Log2 reporter intensity values” ([4]; 3 at 4 μM, DMSO subtracted) was 0.01834 and -0.1481 and -0.09052. For the same compound, the “Log2 reporter intensity values: USP9X;USP9Y” value ([5]; 3 at 1 μM) was 1.02 and 0.9178 and 0.9768, the “Log2 reporter intensity values: USP9X;USP9Y” value ([5]; 3 at 4 μM) was 0.9914 and 0.9828 and 0.9945 and the “Log2 reporter intensity values” ([5]; 3_1 μM) was 0.02022 and -0.08228 and -0.02322. The “Log2 reporter intensity values” ([5]; 3_4 μM) was -0.008621 and -0.01719 and -0.00552, the “Log2 reporter intensity values” ([5]; 3 at 1 μM) was 0.02892 and -0.1238 and -0.03385 and the “Log2 reporter intensity values” ([5]; 3 at 4 μM) was -0.01245 and -0.02497 and -0.007941.
